Measurements: PMC2688476, “Low affinity glucocorticoid binding site ligands as potential anti-fibrogenics” (Comparative Hepatology, 2009)
Structures can show the parent of a compound that is named as a salt.

biological target: low affinity glucocorticoid binding site (LAGS) in rat liver microsomes (Rattus norvegicus, UniProt P70580); experiment: Competition with radiolabelled dexamethasone for specific binding to rat liver microsomes (LAGS activity); details: read-out: IC50% (competition of dexamethasone derivatives for binding to rat liver microsomes); Additional file 2; vs radiolabelled dexamethasone
Sequence (P70580 2-195): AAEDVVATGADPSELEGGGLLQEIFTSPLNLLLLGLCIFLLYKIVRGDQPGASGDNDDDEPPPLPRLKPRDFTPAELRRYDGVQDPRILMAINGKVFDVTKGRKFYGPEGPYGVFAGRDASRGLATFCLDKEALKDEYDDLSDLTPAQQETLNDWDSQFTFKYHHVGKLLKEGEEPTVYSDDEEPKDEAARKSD
Experimental: A small volume of each incubation was removed to determine the total ligand concentration ([L0]) prior to removal of free unbound ligand by dextran/charcoal adsorption. […] Free ligand concentration at equilibrium was calculated by subtracting specifically bound ligand at equilibrium from the total ligand concentration (i.e. [L0] - [LRe]) and assumes receptor-ligand stoichiometry of 1:1.
In brief, rats were anaesthetized with pentobarbital and a 16G cannula inserted into the hepatic portal vein and secured. […] The liver was then excised and chopped roughly with ice-cooled TS buffer (10 mM Tris/HCl pH 7.4 containing 250 mM sucrose) and disrupted using a Potter-Elvehjem homogenisor. The resultant homogenate was then centrifuged at 12,000 g for 20 minutes at 4°C and the supernatant retained and centrifuged at 100,000 g for 60 minutes at 4°C. The resultant "microsomal" pellet was re-suspended in fresh TS buffer and re-centrifuged at 100,000 g to obtain a washed microsomal pellet. […] After overnight incubation on ice, free ligand was removed by charcoal dextran adsorption and bound radioligand determined in supernatants by liquid scintillation, essentially as previously described.

Row | Compound | IC50 [µM]
1 | CC1CC2C3CCC4=CC(=O)C=CC4(C)C3(F)C(O)CC2(C)C1(O)C(=O)O (stereo not drawn) [17β-carboxylic acid derivative, 9α-fluoro 16α-methyl-11β,17α-dihydroxy-1,4-pregn-3-one 17-carboxylic acid] | 100
2 | C[C@@H]1C[C@H]2[C@@H]3CCC4=CC(=O)C=C[C@]4(C)[C@@]3(F)[C@@H](O)C[C@]2(C)[C@@]1(O)C(=O)COS(C)(=O)=O [dexamethasone mesylate] | 10
3 | biotinylated dexamethasone | > 100

same assay, conditions: read-out: IC50% (competition of substituted progestins for binding to rat liver microsomes); Additional file 1; vs radiolabelled dexamethasone

Row | Compound | IC50 [µM]
4 | CCOC(=O)[C@H]1CC[C@H]2[C@@H]3CCC4=CC(=O)CC[C@]4(C)[C@H]3CC[C@]12C [4 androstene-3-one 17β-carboxylic acid ethyl ester] | 0.1
5 | CC(=O)O[C@@H]1C=C2CC[C@H]3[C@@H]4CC[C@H](C(C)=O)[C@@]4(C)CC[C@@H]3[C@@]2(C)CC1 [4 pregnene-3β-ol-20-one acetate] | 0.5
6 | CC(=NOCC(=O)O)[C@H]1CC[C@H]2[C@@H]3CCC4=C[C@@H](O)CC[C@]4(C)[C@H]3CC[C@]12C [4 pregnene-3β-ol-20-one carboxymethyloxime] | > 100
7 | CC(=O)[C@H]1CC[C@H]2[C@@H]3CCC4=C[C@@H](O)CC[C@]4(C)[C@H]3CC[C@]12C [4 pregnene-3β-ol-20-one] | 0.5
8 | CC(=O)[C@H]1CC[C@H]2[C@@H]3C[C@@H](O)C4=CC(=O)CC[C@]4(C)[C@H]3CC[C@]12C [6α-hydroxyprogesterone] | 5
9 | CC(=O)[C@H]1CC[C@H]2[C@@H]3C[C@@H](O)C4=CC(=O)CC[C@]4(C)[C@H]3CC[C@]12C [6β-hydroxyprogesterone] | 10
10 | CC(=O)O[C@@H]1C[C@H]2[C@@H]3CC[C@H](C(C)=O)[C@@]3(C)CC[C@@H]2[C@@]2(C)CCC(=O)C=C12 [6β-progesterone acetate] | 0.5
11 | CC(=O)[C@H]1CC[C@H]2[C@@H]3CCC4=CC(=O)CC[C@]4(C)[C@H]3[C@H](O)C[C@]12C [11α-hydroxyprogesterone] | 0.1
12 | CC(=O)O[C@@H]1C[C@]2(C)[C@@H](C(C)=O)CC[C@H]2[C@@H]2CCC3=CC(=O)CC[C@]3(C)[C@H]21 [11α-progesterone acetate] | 0.1
13 | CC(=O)[C@H]1CC[C@H]2[C@@H]3CCC4=CC(=O)CC[C@]4(C)[C@H]3[C@H](OS(=O)(=O)c3ccc(C)cc3)C[C@]12C [11α-progesterone tosylate] | 10
14 | C[C@]12CCC(=O)C=C1CC[C@@H]1[C@@H]2CC[C@]2(C)C(=O)CC[C@@H]12 [androstenedione, reference compound] | 5
15 | CCC(=O)O[C@H]1CC[C@H]2[C@@H]3CCC4=CC(=O)CC[C@]4(C)[C@H]3CC[C@]12C [testosterone proprionate, reference compound] | 10
